The source made the active and inactive calls. The calls are words filed in the database; no cut-off is given here.
Columns and labels:
Estrogen receptor [1] = target: T1, Estrogen receptor (Homo sapiens, UniProt P03372); experiment: Inhibition of estradiol-induced coactivator peptide SRC1 binding to estrogen receptor alpha expressed in human HEC1 cells after 24 hrs by luciferase based mammalian two-hybrid assay; assay type: cell-based, HEC-1
T1 sequence (P03372 whole entry): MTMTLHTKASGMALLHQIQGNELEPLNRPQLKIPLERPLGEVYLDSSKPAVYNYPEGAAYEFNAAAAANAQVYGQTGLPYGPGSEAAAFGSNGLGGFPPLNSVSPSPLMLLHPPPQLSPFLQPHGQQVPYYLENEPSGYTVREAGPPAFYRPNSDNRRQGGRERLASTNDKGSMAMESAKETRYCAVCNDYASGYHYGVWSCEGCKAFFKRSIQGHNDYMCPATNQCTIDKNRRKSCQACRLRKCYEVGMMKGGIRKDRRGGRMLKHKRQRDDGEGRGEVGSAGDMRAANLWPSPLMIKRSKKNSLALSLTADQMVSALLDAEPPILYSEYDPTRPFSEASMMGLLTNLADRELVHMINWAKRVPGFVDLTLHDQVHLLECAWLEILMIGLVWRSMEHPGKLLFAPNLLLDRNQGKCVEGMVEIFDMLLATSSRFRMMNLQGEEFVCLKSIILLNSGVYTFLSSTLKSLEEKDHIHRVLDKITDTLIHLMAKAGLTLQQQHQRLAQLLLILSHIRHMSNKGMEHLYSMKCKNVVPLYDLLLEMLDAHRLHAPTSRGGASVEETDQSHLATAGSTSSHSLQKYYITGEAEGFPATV

[2] = target: Estrogen receptor alpha (Homo sapiens) (UniProt P03372); experiment: Inhibition of estradiol-induced coactivator peptide SRC1 binding to estrogen receptor alpha expressed in human HEC1 cells at 20 uM after 24 hrs by beta-galactosidase based mammalian two-hybrid assay; set-up: scale not given: the % may be the effect or the level left; conditions: HEC-1
[3] = target: Estrogen receptor alpha (Homo sapiens) (UniProt P03372); experiment: Antagonist activity at estrogen receptor alpha expressed in human HEC1 cells assessed as inhibition of estradiol-induced transcriptional activity at 20 uM after 24 hrs by beta-galactosidase reporter gene assay; set-up: scale not given: the % may be the effect or the level left; conditions: HEC-1
Estrogen receptor [4] = target: T1, Estrogen receptor; experiment: Inhibition of estradiol-induced coactivator peptide SRC binding to recombinant estrogen receptor by fluorescence polarization assay
[5] = target: Estrogen receptor alpha (Homo sapiens) (UniProt P03372); experiment: Covalent binding affinity to estrogen receptor alpha assessed as change in molecular weight after 30 mins by electrospray ionization mass spectrometry

Row | Structure (SMILES) | IC50 (Estrogen receptor [1]) | Activity [2] | Activity [3] | IC50 (Estrogen receptor [4]) | Activity [5]
1 | COC1=C(/C=N/NC(=N)N)CCc2ccccc21 | ≥ 50 µM | 50% | 50% | – | –
2 | N=C(N)N/N=C/C1=C(Cl)c2ccccc2C1 | 6.8 µM | 50% | 50% | – | –
3 | N=C(N)N/N=C/C=C(\Cl)c1cccc2ccccc12 | ≥ 50 µM | 50% | 50% | – | –
4 | CC1CC(/C=N/NC(=N)N)=C(Cl)c2ccccc21 (stereo not given) | 9.4 µM | 50% | 50% | – | –
5 | N=C(N)N/N=C/C1=C(Br)c2ccccc2CC1 | 4.9 µM | 50% | 50% | – | –
6 | N=C(N)N/N=C/c1cccc2ccccc12 | 11.5 µM | 50% | 50% | – | –
7 | N=C(N)N/N=C/C1=C(C(F)(F)F)c2ccccc2CC1 | – | 50% | 50% | – | –
8 | N=C(N)N/N=C/C1=C(Oc2ccccc2)c2ccccc2CC1 | 5.9 µM | 50% | 50% | – | –
9 | C/C(=N\NC(=N)N)C1=C(Cl)c2ccccc2CC1 | – | 50% | 50% | – | –
10 | N=C(N)N/N=C/c1ccc2ccccc2c1 | 11.3 µM | 50% | 50% | – | –
11 | N=C(N)N/N=C/C1=C(Cl)c2ccccc2CC1 | 3.6 µM | 50% | 50% | 11 µM | inactive

Further lines, with some results ahead:

Row | IC50 (Estrogen receptor [1]) | Activity [2] | Activity [3] | IC50 (Estrogen receptor [4]) | Structure (SMILES) | Activity [5]
12 | 4.6 µM | 50% | 50% | – | N=C(N)N/N=C/C=C(\Cl)c1ccccc1 | –
13 | 2.1 µM | 50% | 50% | – | COc1ccc2c(c1)CCC(/C=N/NC(=N)N)=C2Cl | –
14 | 2.6 µM | 50% | 50% | 37 µM | CC(/C=N/NC(=N)N)=C(/Cl)c1ccccc1 | –
15 | 2.5 µM | 50% | 50% | – | Cc1cc(C)c2c(c1)C(Cl)=C(/C=N/NC(=N)N)CC2 | –
16 | 4 µM | 50% | 50% | 16 µM | N=C(N)N/N=C/C1=C(Cl)c2ccccc2CCC1 | –

Source: ChEMBL document CHEMBL1151699, “Synthesis and biological evaluation of guanylhydrazone coactivator binding inhibitors for the estrogen receptor” (Bioorg Med Chem, 2008)
